The record followed here is patent publication US20250314644A1, “METHODS COMPRISING DETECTION OF ADP-HEPTOSE” (CHILDREN'S HOSPITAL MEDICAL CENTER, priority 2023, published 2025).

Common to all, as to assay type: in vivo, mouse
Experiment [1] is described as follows: UHPLC-MS/MS measurement of ADP-heptose in plasma and BM. The conditions noted are these: DSS-induced intestinal barrier dysfunction in mice. As to the method: To measure ADP-heptose, lysates were prepared as described previously. (Gaudet, R. G., et al. INNATE IMMUNITY. Cytosolic detection of the bacterial metabolite HBP activates TIFA-dependent innate immunity. Science 348, 1251-1255 (2015).) Briefly, bacterial culture suspensions of various mouse tissues and human plasma samples were first spun at 4000 g for 5 minutes. Next, pellets were suspended in 1 ml of sterile water. Bacterial cells were then lysed by heating at 95° C. for 15 minutes. Next, lysates were centrifuged at 4000 g for 3 minutes and supernatants filtered through a 0.20 μm syringe filter using 1 ml syringe and needle. Finally, lysates were stored at −80° C. until further processing for Mass Spectrometry. Following a previously established protocol, lysates were prepared. (Pfannkuch, L., et al. ADP heptose, a novel pathogen-associated molecular pattern identified in Helicobacter pylori. FASEB J 33, 9087-9099 (2019).) Briefly, 500 μl of the cleared bacterial lysate was thawed from −80° C. and extracted by addition of 1 ml chloroform/methanol (v:v 2:1) and vortexed and centrifuged (5 min, 10,000 g). […]
The concentration of ADP-heptose was determined using an ultrahigh-performance liquid chromatography-electrospray ionization-mass spectrometry (UHPLC-ESI-MS/MS) method by modifying our previously described protocol. […]

In experiment [2] the test system is Dnmt3a^−/− HSCs. Nature of the experiment: DSS gut injury in low-dose irradiated chimeric mice, with or without antibiotics pre-treatment. The text has this:
To model pre-leukemic clonal hematopoiesis, chimeric mice were generated as aas follows. Briefly, mixture of 1×10^6 whole bone marrow cells (WBM) were obtained from Poly (I:C) treated wild-type (Dnmt3a^+/+; MxCre^+, called Dnmt3a^WT) or mutant mice (Dnmt3a^f/f; MxCre^+, called Dnmt3a^KO) or double mutant mice (Dnmt3a^f/f; MxCre^+; Alpk1^KO, called Dnmt3a^KO; Alpk1^KO) (CD45.2^+), and transplanted into low-dose (2.5 Gy) irradiated recipient mice (CD45.1^+; 6-10 weeks of age). 8 weeks post-transplant, chimeric mice were treated with either water (H2O) or DSS (2.5%) for 1 week, and allowed to recover for 1 more week on water after which flow cytometry was performed on BM. In separate experiment, chimeric mice were pre-treated with broad spectrum antibiotics (ABX) for 4 weeks, and then subjected to DSS for 1 week after which flow cytometry performed on BM. In a separate set of experiment, chimeric mice were treated with either H2O or ADP-heptose (0.5 mg/kg) for 2 weeks, and flow cytometry performed after 2 more weeks on BM. […]
Mice were treated with 2.5% DSS (wt/vol) (MW: 36,000-50,000 Da, Cat No. 216011090, MP Biomedicals) in autoclaved drinking water to induce gut injury-associated colitis as mentioned before. […] Mice were monitored daily for weight loss, stool consistency, and the presence of frank blood in the stool. […]

Experiment [3] can be described thus: Quantification of bacterial DNA (16S) in blood by real-time PCR. The following applies: DSS-induced intestinal barrier dysfunction in mice. From the text:
The previously described protocol to examine bacterial translocation into blood was used. (Luo, Z., et al. CRIg(+) Macrophages Prevent Gut Microbial DNA-Containing Extracellular Vesicle-Induced Tissue Inflammation and Insulin Resistance. Gastroenterology 160, 863-874 (2021); Tabuchi, Y., et al. Oral dextran sulfate sodium administration induces peripheral spondyloarthritis features in SKG mice accompanied by intestinal bacterial translocation and systemic Th1 and Th17 cell activation. Arthritis Res Ther 24, 176 (2022)) Whole blood was collected by cheek bleeding in sterile BD Microtainer Capillary Blood Collector and Microgard Closure tubes (Cat No. 13-680-62, Fisher Scientific) on ice from each mouse using Goldenrod Animal Lancets 4 mm (Cat No. NC9922361, Braintree Scientific), and genomic DNA extracted using DNeasy Blood & Tissue Kit (Cat No. 69504, Qiagen). qPCR was performed using Femto Bacterial DNA Quantification Kit (Cat. No. E2006, Zymo Research) according to the manufacturers' instructions. Samples with a Ct value more than 35 cycles or undetectable were counted as 0 μg/ml.
(Quantitative PCR measures a nucleic acid by following its amplification.)

Take dextran sulfate sodium [DSS]: the “ADP-heptose in BM and PB plasma by mass spectrometry” value in experiment [1] is “circulating ADP-heptose in the BM and PB plasma”. Also, the “expansion of Dnmt3a^−/− HSCs in the BM” value in experiment [2] is listed as “significant expansion”. For the same substance, in experiment [3], the “copies of 16S rRNA in the blood” value is “increased copies”.
